The values below come from patent publication US20240199882A1, “THIENYL-DIBENZOAZEPINES AND THEIR DERIVATIVES AS DONORS FOR XANTHENE-BASED SHORT-WAVE INFRARED (SWIR) DYES” (Mississippi State University, priority 2022, published 2024).

Data set [1] is described as follows: Photophysical properties of the dyes in dichloromethane. It is filed as physicochemical. The conditions noted are these: for QY / Stokes Shift / ε / λabs / λem: in dichloromethane (DCM). The source says:
The quantum yield (QY) of the dyes decreased as the absorption wavelength increased, which is common to these dyes.

Data set [2] is described as follows: Absorbance of DSPE-PEG encapsulated and co-encapsulated dyes. It is filed as physicochemical. The conditions noted are these: co-encapsulated in DSPE-PEG (rNP-NO) versus separate. The source says: The SCR-NO and IR-1061 were encapsulated using DSPE-PEG (a common phospholipids-polymer conjugate) to give NP-SCR-NO and NP-IR-1061, respectively. […] However, when the components were co-encapsulated (rNP-NO, ratiometric NP for NO), there was observed a favorable ˜100 nm red-shift of the SCR-NO λabs into the SWIR region (FIG. 3A). The corresponding change for IR-1061 was minimal (1 nm).

For `CCOC(=O)c1ccccc1C1=c2cc/c(=c3/cc/c(=C4\C=CC(=[N+]5c6ccccc6C=Cc6ccccc65)S4)s3)cc2Oc2cc(-c3ccc(-c4ccc(N5c6ccccc6C=Cc6ccccc65)s4)s3)ccc21` [SCR-3], in data set [1], the absorption maxima was determined as 1040, the QY is 0.016%, the “Stokes Shift” value stood at 220 and the ε is given as 0.80 (M^−1cm^−1) × 10^5. In data set [1], this compound had a λabs of 1040 nm and a λem of 1260 nm.
`CCOC(=O)c1ccccc1C1=c2cc/c(=c3/cc4c(s3)=CC(=[N+]3c5ccccc5C=Cc5ccccc53)S4)cc2Oc2cc(-c3cc4sc(N5c6ccccc6C=Cc6ccccc65)cc4s3)ccc21` [SCR-2]: in data set [1], the absorption maxima amounted to 950, the QY amounted to 0.036%, the “Stokes Shift” value is 150 and the ε was 1.24 (M^−1cm^−1) × 10^5. In data set [1], this compound displayed a λabs of 950 nm and a λem of 1100 nm.
As for `CCOC(=O)c1ccccc1C1=c2cc/c(=C3/C=CC(=[N+]4c5ccccc5C=Cc5ccccc54)S3)cc2Oc2cc(-c3ccc(N4c5ccccc5C=Cc5ccccc54)s3)ccc21` [SCR-1], in data set [1], the absorption maxima stood at 840, the QY is reported as 0.31%, the “Stokes Shift” value came to 110 and the ε is reported as 1.20 (M^−1cm^−1) × 10^5. In data set [1], this compound yielded a λabs of 840 nm and a λem of 950 nm. Moreover, in data set [1] (calculated value), the “PA brightness value (EC×(1−QY))” value was 82800 M⁻¹ cm⁻¹.
For the compound `ClC1=C(/C=C/c2cc(-c3ccccc3)[s+]c(-c3ccccc3)c2)CCC/C1=C/C=C1C=C(c2ccccc2)SC(c2ccccc2)=C1.F[B-](F)(F)F` [IR-1061], the “red-shift / change of λabs” value in data set [2] worked out at 1 nm.
